{"source": "paper PMC7770649", "about": "(iScience, 2020)", "target": "TPI (triosephosphate isomerase), recombinant", "assay": "isothermal titration calorimetry", "type": "binding", "settings": "100 μM TPI, 1 mM palmitic amide; DMSO control"}
{"smiles": "CCCCCCCCCCCCCCCC(N)=O", "note": "[palmitic amide]", "values": [{"measurement": "Kd", "result": "4.89 ± 1.23", "unit": "µM"}]}
